Data taken from patent US7417066B2, “Inhibitors of soluble adenylate cyclase” (Schering AG, priority 2005, dated 2008).

Target: soluble, sperm-specific adenylate cyclase (sAC) (Homo sapiens, UniProt Q96PN6)
Experiment: sAC assay (HTRF cAMP detection)
Type: biochemical
Conditions: read-out: IC50 (μM), inhibition of soluble adenylate cyclase
Source text: In a suitable buffer system, soluble, sperm-specific adenylate cyclase catalyzes the conversion of adenosine triphosphate (ATP) to cyclic adenosine monophosphate (cAMP) and pyrophosphate. Free cAMP generated in this way is then used in a competitive detection technique, in which the binding of a europium cryptate Eu[K]-labeled anti-cAMP antibody (anti-cAMP-Eu[K]-AB) to a modified allophycocyanine-1 molecule labeled with cAMP molecules (cAMP-XL665) is prevented. In the absence of exogenous cAMP, after excitation at 335 nm there is Fluorescence Resonance Energy Transfer (FRET) between the anti-cAMP-Eu[K]-AB (FRET donor) and the cAMP-XL665 molecule (FRET acceptor). This process is quantified, time-resolved, on the basis of the emission of the FRET acceptor XL665 (665 nm and 620 nm). A decrease in signal (measured as Well Ratio; calculated from the Formula: [(E665 nm/E620 nm)×10000]) can be attributed to the presence of cAMP and thus to the activity of sAC. First, 1.5 μl of the test substance (in 30% DMSO) is placed in each well of a 384-well test plate (polystyrene; 384, NV), and in the solvent controls only 30% DMSO. Then 10 μl of a dilute sAC enzyme solution is applied (enzyme stock solution in 300 mM NaCl, 10% glycerol; pH 7.6; enzyme intermediate and final dilution a) 1:10 and b) 1:2000 in each case in: 1.0 mM MnCl2; 0.2% BSA; 50 mM Tris pH 7.5 in H2O). […]
Next, 8 μl of detection solution 1 is placed in a well of the 384-well measuring plate (measuring plate: polystyrene; 384, SV—black; detection solution 1: 50 μl cAMP-XL665; 950 μl reconstituted buffer; 2200 μl PBS; cAMP-XL665: prepared by adding 5 ml H2O to the lyophilized product according to the instructions in Cis bio Kit: 62AMPPEC; storage: in aliquots at −80° C.). […] After further incubation for 90 min at room temperature, the HTRF result is measured either on the Packard Discovery or with the RubiStar HTRF measuring instrument (delay: 50 μs; integration time: 400 μs).

Chain of soluble, sperm-specific adenylate cyclase (sAC) (Q96PN6 whole entry): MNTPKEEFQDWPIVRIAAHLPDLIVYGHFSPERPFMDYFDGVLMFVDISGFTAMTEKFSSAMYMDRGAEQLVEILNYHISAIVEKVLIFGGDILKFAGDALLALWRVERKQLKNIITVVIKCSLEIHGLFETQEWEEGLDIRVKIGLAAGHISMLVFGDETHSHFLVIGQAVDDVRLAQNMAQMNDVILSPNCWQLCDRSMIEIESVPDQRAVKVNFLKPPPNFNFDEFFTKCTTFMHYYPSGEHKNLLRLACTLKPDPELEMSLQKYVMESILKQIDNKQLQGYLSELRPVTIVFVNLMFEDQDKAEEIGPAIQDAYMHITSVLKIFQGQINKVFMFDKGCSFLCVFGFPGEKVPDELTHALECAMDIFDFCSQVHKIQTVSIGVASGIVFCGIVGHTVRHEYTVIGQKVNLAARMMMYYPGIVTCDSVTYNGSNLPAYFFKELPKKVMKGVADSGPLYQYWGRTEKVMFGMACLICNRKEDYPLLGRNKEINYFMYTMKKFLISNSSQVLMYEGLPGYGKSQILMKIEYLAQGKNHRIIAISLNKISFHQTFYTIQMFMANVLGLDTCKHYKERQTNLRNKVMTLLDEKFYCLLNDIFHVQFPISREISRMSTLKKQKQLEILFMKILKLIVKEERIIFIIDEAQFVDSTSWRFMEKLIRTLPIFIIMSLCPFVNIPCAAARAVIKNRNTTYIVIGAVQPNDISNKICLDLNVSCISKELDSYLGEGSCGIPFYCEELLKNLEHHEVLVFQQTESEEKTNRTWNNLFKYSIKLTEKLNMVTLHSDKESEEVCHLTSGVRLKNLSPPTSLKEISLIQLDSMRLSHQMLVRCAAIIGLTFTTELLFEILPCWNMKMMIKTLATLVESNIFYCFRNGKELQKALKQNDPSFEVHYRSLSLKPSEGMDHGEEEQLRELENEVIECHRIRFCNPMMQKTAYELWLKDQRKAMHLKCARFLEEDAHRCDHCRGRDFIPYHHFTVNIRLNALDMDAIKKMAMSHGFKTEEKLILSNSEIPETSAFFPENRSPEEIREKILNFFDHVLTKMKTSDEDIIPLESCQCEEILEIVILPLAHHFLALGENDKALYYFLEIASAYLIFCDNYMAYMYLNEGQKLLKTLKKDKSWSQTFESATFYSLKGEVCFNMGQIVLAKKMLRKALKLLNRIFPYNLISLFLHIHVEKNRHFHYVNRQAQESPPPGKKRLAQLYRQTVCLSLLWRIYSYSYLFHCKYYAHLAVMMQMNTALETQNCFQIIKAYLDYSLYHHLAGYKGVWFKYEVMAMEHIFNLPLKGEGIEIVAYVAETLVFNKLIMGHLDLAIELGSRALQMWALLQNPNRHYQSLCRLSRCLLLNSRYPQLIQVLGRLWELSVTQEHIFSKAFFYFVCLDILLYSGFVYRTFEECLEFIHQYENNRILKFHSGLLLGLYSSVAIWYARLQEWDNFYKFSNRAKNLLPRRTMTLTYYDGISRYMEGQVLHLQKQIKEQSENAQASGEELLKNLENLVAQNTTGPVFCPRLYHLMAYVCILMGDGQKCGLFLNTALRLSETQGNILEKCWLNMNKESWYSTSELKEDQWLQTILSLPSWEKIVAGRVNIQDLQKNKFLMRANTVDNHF

| Structure (SMILES) | IC50 |
| --- | --- |
| CC(CO)NC(=O)c1oc2ccc(NS(=O)(=O)c3ccc(C(C)(C)C)cc3)cc2c1-c1ccccc1 (racemic) [Example 17, (+/−)-5-(4-tert-Butylbenzenesulfonylamino)-3-phe-nyl-1-benzofuran-2-carboxylicacid-(2-hydroxy-1-meth-ylethyl)amide] | 8.5 µM |
| CC(C)(C)c1ccc(S(=O)(=O)Nc2ccc3oc(C(=O)NCCN4CCOCC4)c(-c4ccccc4)c3c2)cc1 [Example 6, 5-(4-tert-Butylbenzenesulfonylamino)-3-phe-nyl-1-benzofuran-2-carboxylicacid-(2-morpholin-4-ylethyl)amide] | 5.2 µM |
| CC(O)CNC(=O)c1oc2ccc(NS(=O)(=O)c3ccc(C(C)(C)C)cc3)cc2c1-c1ccccc1 (racemic) [Example 16, (+/−)-5-(4-tert-Butylphenylsulfonylamino)-3-phe-nyl-1-benzofuran-2-carboxylicacid-(2-hydroxypropyl)amide] | 4.3 µM |
